Mutagenic call data for three molecules are collected here from PubChem BioAssay AID1259407 (Chemical Carcinogenesis Research Information System (CCRIS), 2018).

For this data set, the system named is CCRIS mutagenicity, Ames/micronucleus/aberration tests. Put plainly: CCRIS mutagenicity studies.
Where [1] appears, read: Test System: AMES SALMONELLA TYPHIMURIUM, Strain/Indicator: TA100, Metabolic Activation: NONE, Method: STANDARD PLATE.
[2] abbreviates: Test System: E. COLI, Strain/Indicator: WP2, Metabolic Activation: NONE, Method: STANDARD PLATE.

Activity calls are given as the source filed them. No rule for the calls is given here.

As for `O=CNc1nc(-c2ccc([N+](=O)[O-])o2)cs1`, the mutagenic call by setting is: under setting [1], “active; positive”; (Test System: AMES SALMONELLA TYPHIMURIUM, Strain/Indicator: TA100, Metabolic Activation: RAT, LIVER, S-9, KC500 OR PHENOBARBITAL, Method: LIQUID SUSPENSION) “active; positive”; (Test System: E. COLI, Strain/Indicator: WP2, Metabolic Activation: NONE, Method: SPOT) “active; positive”; under setting [2], “active; positive”; (Test System: E. COLI, Strain/Indicator: WP2 UVRA, Metabolic Activation: HAMSTER, LIVER, S-9, AROCLOR 1254, Method: STANDARD PLATE) “active; positive”; (Test System: E. COLI, Strain/Indicator: WP2 UVRA, Metabolic Activation: HAMSTER, LIVER, S-9, Method: STANDARD PLATE) “active; positive”. The mutagenic call (Test System: E. COLI, Strain/Indicator: WP2 UVRA, Metabolic Activation: MOUSE, LIVER, S-9, AROCLOR 1254, Method: STANDARD PLATE) was “active; positive”; the mutagenic call (Test System: E. COLI, Strain/Indicator: WP2 UVRA, Metabolic Activation: MOUSE, LIVER, S-9, Method: STANDARD PLATE) was “active; positive”; the mutagenic call (Test System: E. COLI, Strain/Indicator: WP2 UVRA, Metabolic Activation: NONE, Method: SPOT) is “active; positive”; the mutagenic call (Test System: E. COLI, Strain/Indicator: WP2 UVRA, Metabolic Activation: NONE, Method: STANDARD PLATE) was “active; positive”; the mutagenic call (Test System: E. COLI, Strain/Indicator: WP2 UVRA, Metabolic Activation: RAT, LIVER, S-9, AROCLOR 1254, Method: STANDARD PLATE) was “active; positive”; the mutagenic call (Test System: E. COLI, Strain/Indicator: WP2 UVRA, Metabolic Activation: RAT, LIVER, S-9, Method: STANDARD PLATE) is “active; positive”.
`O=S(O)(O)=S`: the mutagenic call was “inactive; negative” (Test System: AMES SALMONELLA TYPHIMURIUM, Strain/Indicator: TA98, Metabolic Activation: NONE, Method: STANDARD PLATE); “inactive; negative” (Test System: AMES SALMONELLA TYPHIMURIUM, Strain/Indicator: TA98, Metabolic Activation: RAT, LIVER, S-9, AROCLOR 1254, Method: STANDARD PLATE); “inactive; negative” under setting [1]; “inactive; negative” (Test System: AMES SALMONELLA TYPHIMURIUM, Strain/Indicator: TA100, Metabolic Activation: RAT, LIVER, S-9, AROCLOR 1254, Method: STANDARD PLATE); “inactive; negative” (Test System: AMES SALMONELLA TYPHIMURIUM, Strain/Indicator: TA1535, Metabolic Activation: NONE, Method: STANDARD PLATE); “inactive; negative” (Test System: AMES SALMONELLA TYPHIMURIUM, Strain/Indicator: TA1535, Metabolic Activation: RAT, LIVER, S-9, AROCLOR 1254, Method: STANDARD PLATE). The mutagenic call by setting is: (Test System: AMES SALMONELLA TYPHIMURIUM, Strain/Indicator: TA1537, Metabolic Activation: NONE, Method: STANDARD PLATE) “inactive; negative”; (Test System: AMES SALMONELLA TYPHIMURIUM, Strain/Indicator: TA1537, Metabolic Activation: RAT, LIVER, S-9, AROCLOR 1254, Method: STANDARD PLATE) “inactive; negative”; (Test System: AMES SALMONELLA TYPHIMURIUM, Strain/Indicator: TA1538, Metabolic Activation: NONE, Method: STANDARD PLATE) “inactive; negative”; (Test System: AMES SALMONELLA TYPHIMURIUM, Strain/Indicator: TA1538, Metabolic Activation: RAT, LIVER, S-9, AROCLOR 1254, Method: STANDARD PLATE) “inactive; negative”; under setting [2], “inactive; negative”; (Test System: E. COLI, Strain/Indicator: WP2, Metabolic Activation: RAT, LIVER, S-9, AROCLOR 1254, Method: STANDARD PLATE) “inactive; negative”.
For `CC(C)COC(=O)Cc1ccccc1`, the mutagenic call by setting is: (Test System: AMES SALMONELLA TYPHIMURIUM, Strain/Indicator: TA97, Metabolic Activation: NONE, Method: PREINCUBATION) “inactive; negative”; (Test System: AMES SALMONELLA TYPHIMURIUM, Strain/Indicator: TA97, Metabolic Activation: RAT, LIVER, S-9, AROCLOR 1254, Method: PREINCUBATION) “inactive; negative”; (Test System: AMES SALMONELLA TYPHIMURIUM, Strain/Indicator: TA102, Metabolic Activation: NONE, Method: PREINCUBATION) “inactive; negative”; (Test System: AMES SALMONELLA TYPHIMURIUM, Strain/Indicator: TA102, Metabolic Activation: RAT, LIVER, S-9, AROCLOR 1254, Method: PREINCUBATION) “inactive; negative”.
